{
  "source": "paper PMC11011526",
  "about": "“Identification of Inhibitors of the Disease-Associated Protein Phosphatase Scp1 Using Antibody Mimetic Molecules” (International Journal of Molecular Sciences, 2024)",
  "key": {"Scp1 [1]": {"biological_target": "T1, Scp1 (Homo sapiens, UniProt Q9GZU7)", "T1 construct": "gene CTDSP1; recombinant in E. coli Rosetta, Talon purified; His6-Scp1 (kinetics) or GST-Scp1-Myc-His6 (specificity assay)", "T1 sequence (Q9GZU7 1-261)": "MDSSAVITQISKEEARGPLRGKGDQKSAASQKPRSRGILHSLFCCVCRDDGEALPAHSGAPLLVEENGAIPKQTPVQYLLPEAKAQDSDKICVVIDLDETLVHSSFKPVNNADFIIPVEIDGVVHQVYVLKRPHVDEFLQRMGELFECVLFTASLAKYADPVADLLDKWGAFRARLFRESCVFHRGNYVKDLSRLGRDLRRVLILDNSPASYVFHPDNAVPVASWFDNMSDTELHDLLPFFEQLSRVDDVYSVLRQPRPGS", "assay": "competition ELISA against FG-1Adn binding", "conditions": "100 µM rabeprazole; 20 mM Na-maleate pH 5.5, 150 mM NaCl, 10 mM MgCl2; R.T.; indirect, displacement of adnectin FG-1Adn"}, "Scp3": {"biological_target": "T2, Scp3 (Homo sapiens, UniProt O15194)", "T2 construct": "gene CTDSPL; recombinant, GST tag and Myc-His6 tag", "T2 sequence (O15194 1-276)": "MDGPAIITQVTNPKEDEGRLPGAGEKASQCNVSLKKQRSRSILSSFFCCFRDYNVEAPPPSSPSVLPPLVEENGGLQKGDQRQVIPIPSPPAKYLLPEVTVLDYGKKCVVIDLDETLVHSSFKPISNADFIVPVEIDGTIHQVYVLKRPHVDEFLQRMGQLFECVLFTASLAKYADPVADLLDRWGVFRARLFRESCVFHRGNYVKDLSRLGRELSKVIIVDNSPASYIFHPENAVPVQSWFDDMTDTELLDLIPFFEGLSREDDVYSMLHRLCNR", "assay": "colorimetric pNPP phosphatase assay, absorbance […] nm", "assay_type": "biochemical", "conditions": "20 mM Na-maleate pH 5.5, 10 mM MgCl2; 10 mM pNPP; 37 °C; 7 min"}, "Scp1 [2]": {"biological_target": "T1, Scp1", "assay": "colorimetric pNPP phosphatase assay, absorbance […] nm", "assay_type": "biochemical", "conditions": "20 mM Na-maleate pH 5.5, 10 mM MgCl2; His6-Scp1 10 nM; no added adnectin"}, "Scp2": {"biological_target": "T3, Scp2 (Homo sapiens, UniProt O14595)", "T3 construct": "gene CTDSP2; recombinant, GST tag and Myc-His6 tag", "T3 sequence (O14595 1-271)": "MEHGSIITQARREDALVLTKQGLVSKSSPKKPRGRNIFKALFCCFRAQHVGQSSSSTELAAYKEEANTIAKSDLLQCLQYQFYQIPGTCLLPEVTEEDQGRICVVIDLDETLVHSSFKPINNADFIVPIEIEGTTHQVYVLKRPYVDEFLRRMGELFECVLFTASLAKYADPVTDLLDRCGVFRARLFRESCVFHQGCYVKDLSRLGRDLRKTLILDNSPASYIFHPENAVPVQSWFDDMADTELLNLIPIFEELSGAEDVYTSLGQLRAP", "assay": "colorimetric pNPP phosphatase assay, absorbance […] nm", "assay_type": "biochemical", "conditions": "20 mM Na-maleate pH 5.5, 10 mM MgCl2; 10 mM pNPP; 37 °C; 7 min"}, "Fcp1": {"biological_target": "T4, Fcp1 (Homo sapiens, UniProt Q9Y5B0)", "T4 construct": "gene CTDP1; recombinant, GST tag and Myc-His6 tag", "T4 sequence (Q9Y5B0 1-961)": "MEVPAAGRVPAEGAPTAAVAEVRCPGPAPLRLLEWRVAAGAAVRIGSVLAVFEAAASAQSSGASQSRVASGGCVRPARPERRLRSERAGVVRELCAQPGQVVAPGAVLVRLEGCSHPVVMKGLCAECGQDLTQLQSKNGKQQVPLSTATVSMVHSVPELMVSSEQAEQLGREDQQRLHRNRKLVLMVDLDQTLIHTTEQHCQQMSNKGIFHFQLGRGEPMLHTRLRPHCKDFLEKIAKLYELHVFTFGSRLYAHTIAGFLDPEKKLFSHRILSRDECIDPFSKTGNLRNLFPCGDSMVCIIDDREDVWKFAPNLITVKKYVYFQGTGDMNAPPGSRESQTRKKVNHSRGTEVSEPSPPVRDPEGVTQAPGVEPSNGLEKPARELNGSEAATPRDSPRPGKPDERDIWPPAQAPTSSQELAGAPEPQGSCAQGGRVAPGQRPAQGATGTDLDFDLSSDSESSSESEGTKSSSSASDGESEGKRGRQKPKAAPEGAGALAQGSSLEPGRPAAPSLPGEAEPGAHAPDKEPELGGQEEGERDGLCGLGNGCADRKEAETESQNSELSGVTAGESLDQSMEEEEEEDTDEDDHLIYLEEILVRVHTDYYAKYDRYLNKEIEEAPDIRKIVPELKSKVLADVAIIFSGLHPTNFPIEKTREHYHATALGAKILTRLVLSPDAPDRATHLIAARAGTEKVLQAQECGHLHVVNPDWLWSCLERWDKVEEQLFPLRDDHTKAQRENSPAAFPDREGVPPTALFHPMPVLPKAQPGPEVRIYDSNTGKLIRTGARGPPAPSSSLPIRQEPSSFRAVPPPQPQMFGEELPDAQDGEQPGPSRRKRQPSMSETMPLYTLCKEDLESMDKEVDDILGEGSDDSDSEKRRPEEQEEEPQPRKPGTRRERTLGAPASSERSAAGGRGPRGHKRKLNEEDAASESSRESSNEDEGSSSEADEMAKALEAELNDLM", "assay": "colorimetric pNPP phosphatase assay, absorbance […] nm", "assay_type": "biochemical", "conditions": "20 mM Na-maleate pH 5.5, 10 mM MgCl2; 10 mM pNPP; 37 °C; 60 min"}, "FG-1Adn (human)": {"biological_target": "FG-1Adn (human)", "assay": "BLI; BLItz system, Advanced Kinetics mode; biotinylated FG-1Adn loaded on streptavidin biosensors; 20 mM Na-maleate (pH 5.5), 150 mM NaCl, 10 mM MgCl2, 0.05% Tween; 250 nM Scp1, 120 s association, 120 s dissociation; 1:1 Langmuir model"}},
  "data": [
    {"molecule": "COCCCOc1ccnc(C[S+]([O-])c2nc3ccccc3[nH]2)c1C", "note": "(stereo not drawn) [rabeprazole]", "values": [
      {"measurement": "almost complete inhibition of FG-1Adn binding", "setting": "Scp1 [1]", "value": "rabeprazole almost completely inhibited the binding of FG-1Adn to Scp1"}
    ]},
    {"molecule": "O=[N+]([O-])c1ccc(OP(=O)(O)O)cc1", "note": "[pNPP]", "values": [
      {"measurement": "colorimetric pNPP phosphatase assay, absorbance 410 nm", "setting": "Scp3", "value": "inhibitory effects of FG-1Adn inhibition against FCP/SCP phosphatases using pNPP as a substrate"},
      {"measurement": "colorimetric pNPP phosphatase assay, absorbance 410 nm", "setting": "Scp1 [2]", "value": "Lineweaver–Burk plot analysis was performed using pNPP as a substrate"},
      {"measurement": "colorimetric pNPP phosphatase assay, absorbance 410 nm", "setting": "Scp2", "value": "inhibitory effects of FG-1Adn inhibition against FCP/SCP phosphatases using pNPP as a substrate"},
      {"measurement": "colorimetric pNPP phosphatase assay, absorbance 410 nm", "setting": "Fcp1", "value": "inhibitory effects of FG-1Adn inhibition against FCP/SCP phosphatases using pNPP as a substrate"}
    ]},
    {"molecule": "Scp1 (enzyme) MDSSAVITQISKEEARGPLRGKGDQKSAASQKPRSRGILHSLFCCVCRDDGEALPAHSGAPLLVEENGAIPKQTPVQYLLPEAKAQDSDKICVVIDLDETLVHSSFKPVNNADFIIPVEIDGVVHQVYVLKRPHVDEFLQRMGELFECVLFTASLAKYADPVADLLDKWGAFRARLFRESCVFHRGNYVKDLSRLGRDLRRVLILDNSPASYVFHPDNAVPVASWFDNMSDTELHDLLPFFEQLSRVDDVYSVLRQPRPGS", "values": [
      {"measurement": "Kd", "setting": "FG-1Adn (human)", "value": 48.7, "unit": "nM"}
    ]}
  ]
}
